The values that follow come from US5574009A, “Method of stimulating myelination of cells” (Trustees of the University Of Pennsylvania, priority 1994, dated 1996).

This assay relates to neonatal rat optic nerve cultures. The experiment in a line: Mitomycin C treatment of optic nerve cultures. In kind it is cell-based. As to conditions: 25 μg/ml for 30 minutes, PND-1, then 24 or 48 hours. Here is the method: A stock solution of 0.5 mg/ml mitomycin C (Sigma) in HBSS (Gibco) was prepared and stored at 4° C. in the dark. Cultures were treated with 25 μg/ml mitomycin C diluted in N2/0.5% FCS for 30 minutes at 37° C. in the dark. The cultures were washed twice with N2/0.5% FCS and cultured for an additional 24 or 48 hours.
To test whether inhibition of proliferation per se affected the timing of GalC(+) appearance, optic nerve cultures prepared on PND-1 were treated with mitomycin C. After plating, the cells were incubated with 25 μg/ml mitomycin C for 30 minutes. After washing, the cultures were carried for an additional 24 or 48 hours.

Regarding `CO[C@@]12[C@H](COC(N)=O)C3=C(C(=O)C(C)=C(N)C3=O)N1C[C@@H]1N[C@@H]12` [mitomycin C], the “numbers of A2B5(+) cells” value is reported as “Decreased numbers of A2B5(+) cells” and the “proportion of GalC(+) cells” value is “without a concomitant increase in the proportion of GalC(+) cells”.
